One substance from patent US12533429B2, “Surface enhanced raman scattering nanoparticles and their use in detecting and imaging oxidative stress” (The Board of Trustees of the Leland Stanford Junior …, priority 2019, dated 2026) can be followed below.

For experiment [1], the system named is A431 cells. The experiment is described as follows: DCFH-DA fluorometric ROS assay in A431 cells. Format: cell-based, human. As to conditions: DCFH-DA 40 μM, 24 h. As for the experimental part: (§1) To measure ROS, a traditional fluorometric assay using Dichlorofluorescein diacetate (DCFH-DA; Sigma Aldrich, USA) was performed. DCFH-DA is a cell-permeable non-fluorescent probe which is hydrolyzed by intracellular esterases, thereby trapping it within the cell. This non-fluorescent molecule can then be oxidized by ROS, which turns it into fluorescent dichlorofluorescein (DCF). The level of intracellular fluorescence is therefore proportional to the amount of intracellular ROS production with a linear dynamic range [12]. All experiments were performed in 12-well plates. A431 and AsPC-1 cells were seeded in 12-well culture plates achieving a cell density of 50,000, 100,000, 200,000 and 300,000 cells/well. Cells were incubated with DCFH-DA (40 μM, 200 μL) in DMEM-10% FBS-50 U/mL penicillin-50 μg/mL streptomycin culture medium at 37° C. in a humidified incubator containing 5% CO2/95% air for 24 h. The fluorescence from DCF was then measured using a microplate spectrophotometer system with […].

For experiment [2], the system named is AsPC-1 cells. The experiment is described as follows: DCFH-DA fluorometric ROS assay in AsPC-1 cells. It counts as cell-based, human. Conditions: DCFH-DA 40 μM, 24 h. How it is done: as §1
Experiment [3] has as its system AD-MSCs. Briefly: DCFH-DA fluorometric ROS assay in AD-MSCs. Format: cell-based. Conditions: 300,000 AD-MSCs.

Values joined by “and” are separate entries in the source; they are usually repeats but may differ in a detail not shown here. Equal values may be shown once.

Consider Dichlorofluorescein diacetate [DCFH-DA], for which the “ROS production, DCFH-DA assay” value in experiment [1] (50,000 A431 cells) is 0.17±0.01 absorbance units; in experiment [1] (100,000 A431 cells), 0.49±0.01 absorbance units; in experiment [1] (200,000 A431 cells), 0.96±0.07 absorbance units; in experiment [1] (300,000 A431 cells), 1.06±0.05 absorbance units and 1.10±0.04 absorbance units; in experiment [2] (50,000 AsPC-1 cells), 0.15±0.04 absorbance units; in experiment [2] (100,000 AsPC-1 cells), 0.51±0.06 absorbance units. Further, the “ROS production, DCFH-DA assay” value in experiment [2] (200,000 AsPC-1 cells) was 0.82±0.05 absorbance units; in experiment [3] it was 1.06±0.05 absorbance units.
